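Exposure lasted 48 hours, with cells grown in 96-well plates and compounds tested at five concentrations. GI50 marks 50% less growth. Definition used: TGI = concentration required for complete inhibition of growth.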
The molecules below were run on EKVX NSCLC (assay: inhibition of tumour cell growth, NCI panel, 48 h).
With `NC(=O)C12CC3CC(CC(F)(C3)C1)C2` the TGI was > 100 µM.
For `CCCCNC(=S)Nc1nc(C(=O)NNC(=S)Nc2ccccc2)cs1`, the TGI was > 100 µM.
In the case of `CC(=O)c1c(C)n([O-])c2cc(Cl)c(Cl)cc2[n+]1=O`, the TGI is reported as > 100 µM.
`O=c1c(/C=C/c2c(O)ccc3ccccc23)nnc2sc(-c3cccc(Br)c3)nn12` was tested, and the TGI was 98.1 µM.
For `CC(=O)Oc1c2c(c(O)c3ccccc13)C(n1cnc3c(ncn3C3OC(CO)C4OC(C)(C)OC43)c1=N)CCC2` (centres undefined), the TGI was 36.9 µM.
With `CN(C)CCC(=O)c1ccccc1` the TGI was > 68.8 µM.
`CCOc1ccccc1NC(=O)C(=O)CC(=O)c1sc(Nc2nnc(-c3ccc(Cl)c(Cl)c3)o2)nc1C` was tested, and the TGI was > 100 µM.

The molecules below were run on A498 renal (assay: inhibition of tumour cell growth, NCI panel, 48 h).
In the case of `CN1CCOC(c2ccccc2)O1` (centres undefined), the TGI is reported as > 100 µM.
For `O=C(/C=C/c1cc2ccccc2o1)N1CCN(c2ccccn2)CC1`, the TGI was > 100 µM.
With `CCCNC(=S)NNC(=O)CSc1nc(-c2ccccc2)c(-c2ccccc2)[nH]1` the TGI was > 100 µM.
With `CC(=O)c1sc(Nc2nnc(-c3ccc(-c4nnc(Nc5nc(C)c(C(C)=O)s5)o4)cc3)o2)nc1C` the TGI was > 100 µM.
In the case of `O=c1[nH]nc(Cc2ccccc2)n1/N=C/c1ccccc1O`, the TGI is reported as > 100 µM.
`CC1c2c(Cl)nc3ccccc3c2Oc2c1c(Cl)nc1ccccc21` was tested, and the TGI was > 100 µM.
`COC1(OC)C(N(C)C)=C(Cl)C(=O)/C1=C/C=O` was tested, and the TGI was > 100 µM.
`CC(=O)Oc1ccc2c(C)cc(=O)oc2c1OC(C)=O` showed a TGI of 76.5 µM.
With `Nc1nc(N)c2c3c(cnc2n1)CC(c1ccccc1)CC3` (centres undefined) the TGI was > 100 µM.
In the case of `Cc1ccccc1N1C(=O)C2C=CC(n3[nH]c(=O)n(Cc4ccccc4)c3=O)CC2C1=O` (centres undefined), the TGI is reported as > 100 µM.
`CSc1ncnc2c1ncn2CCC(=O)OC(C)(C)C` was tested, and the TGI was > 100 µM.
`N#Cc1c(N)nc2n[nH]c(N)c2c1-c1ccc(Cl)cc1` was tested, and the TGI was 3.14 µM.
In the case of `COC(=O)C1=C(C(=O)NNc2ccccc2)N(c2cccnc2Cl)C(c2ccccc2)=CC1c1ccccc1` (centres undefined), the TGI is reported as > 100 µM.
For `Nc1ncnc2c1ncn2[C@@H]1C[C@@H]1CO`, the TGI was > 100 µM.
For `CCOC(=O)c1nnc2c(C(=O)OCC)c3ccccc3n2c1N`, the TGI was 60.8 µM.
In the case of `S=c1sc2c(Cl)nc(Cl)nc2n1-c1ccccc1`, the TGI is reported as > 100 µM.
In the case of `COC(=O)c1cc2ccc(N)nc2[nH]c1=O`, the TGI is reported as > 100 µM.
Molecule `COC(=O)C1=C(O)C(C(=O)OC)[C@]2(O)[C@H](C(=O)OC)[C@H]1C[C@@H](c1ccc(C(F)(F)F)cc1)[C@H]2C(=O)OC` (some centres undefined) has a TGI of 13.9 µM.
For `CCOC(=O)C12OC(CCC1=O)C(C(=O)OC)=C2C(=O)OC` (centres undefined), the TGI was > 10 µM.
With `O=C(O)[C@@H]1CCS(=O)(=O)N1` the TGI was > 100 µM.
`CCOC(=O)NC(Nc1ccc(S(=O)(=O)Nc2nc(C)cc(C)n2)cc1)(C(=O)OCC)C(F)(F)F` (centres undefined) was tested, and the TGI was > 100 µM.
For `CC(C)(C)OC(=O)[C@H]1CCC(=S)N1Cc1ccccc1`, the TGI was > 100 µM.
`COc1ccc(S(=O)(=O)c2nnc(S(=O)(=O)Cc3ccccc3)s2)cc1` was tested, and the TGI was 39.9 µM.
With `O=[N+]([O-])c1ccc2c(c1)C1=C(CO2)Cc2ccccc2O1` the TGI was > 100 µM.
For `Nc1nc(SC/C=C/c2ccccc2)c2[nH]cnc2n1`, the TGI was > 100 µM.
In the case of `NC(=O)C12CC3CC(CC(F)(C3)C1)C2`, the TGI is reported as > 100 µM.
`CSc1nc(Nc2cccc(C(F)(F)F)c2)c2c(N)nn(C)c2n1` was tested, and the TGI was > 100 µM.
For `CCCCNC(=S)Nc1nc(C(=O)NNC(=S)Nc2ccccc2)cs1`, the TGI was 68 µM.
For `CC(=O)c1c(C)n([O-])c2cc(Cl)c(Cl)cc2[n+]1=O`, the TGI was 70.4 µM.
With `O=c1c(/C=C/c2c(O)ccc3ccccc23)nnc2sc(-c3cccc(Br)c3)nn12` the TGI was > 100 µM.
`CC(=O)Oc1c2c(c(O)c3ccccc13)C(n1cnc3c(ncn3C3OC(CO)C4OC(C)(C)OC43)c1=N)CCC2` (centres undefined) was tested, and the TGI was 33.3 µM.
For `CN(C)CCC(=O)c1ccccc1`, the TGI was > 95.5 µM.
For `CCOc1ccccc1NC(=O)C(=O)CC(=O)c1sc(Nc2nnc(-c3ccc(Cl)c(Cl)c3)o2)nc1C`, the TGI was > 100 µM.

These molecules were tested on HS 578T breast (assay: inhibition of tumour cell growth, NCI panel, 48 h).
With `O=c1cc(-c2cccc3ccccc23)[nH]c2ncccc12` the GI50 was 0.0186 µM and the TGI was > 100 µM.
In the case of `O=C(/C=C/c1cc2ccccc2o1)N1CCN(c2ccccn2)CC1`, the TGI is reported as > 100 µM.
For `O=c1[nH]nc(Cc2ccccc2)n1/N=C/c1ccccc1O`, the TGI was > 100 µM.
In the case of `CC(=O)Oc1ccc2c(C)cc(=O)oc2c1OC(C)=O`, the TGI is reported as 99.5 µM.
With `Nc1nc(N)c2c3c(cnc2n1)CC(c1ccccc1)CC3` (centres undefined) the TGI was > 100 µM.
`N#Cc1c(N)nc2n[nH]c(N)c2c1-c1ccc(Cl)cc1` was tested, and the TGI was 8.64 µM.
In the case of `COC(=O)C1=C(C(=O)NNc2ccccc2)N(c2cccnc2Cl)C(c2ccccc2)=CC1c1ccccc1` (centres undefined), the TGI is reported as > 100 µM.
With `Nc1ncnc2c1ncn2[C@@H]1C[C@@H]1CO` the TGI was > 100 µM.
`CCOC(=O)c1nnc2c(C(=O)OCC)c3ccccc3n2c1N` was tested, and the TGI was > 100 µM.
With `CC12CC(c3ccccc3O1)C(C(=O)Nc1ccc(Cl)cc1Cl)C(=O)N2` (centres undefined) the TGI was 47.7 µM.
`COC(=O)C1=C(O)C(C(=O)OC)[C@]2(O)[C@H](C(=O)OC)[C@H]1C[C@@H](c1ccc(C(F)(F)F)cc1)[C@H]2C(=O)OC` (some centres undefined) was tested, and the TGI was > 100 µM.
For `CCOC(=O)C12OC(CCC1=O)C(C(=O)OC)=C2C(=O)OC` (centres undefined), the TGI was > 10 µM.
With `CCOC(=O)NC(Nc1ccc(S(=O)(=O)Nc2nc(C)cc(C)n2)cc1)(C(=O)OCC)C(F)(F)F` (centres undefined) the TGI was > 100 µM.
In the case of `COc1ccc(S(=O)(=O)c2nnc(S(=O)(=O)Cc3ccccc3)s2)cc1`, the TGI is reported as 43 µM.
`Nc1nc(SC/C=C/c2ccccc2)c2[nH]cnc2n1` gave a TGI of 88.8 µM.
`CSc1nc(Nc2cccc(C(F)(F)F)c2)c2c(N)nn(C)c2n1` was tested, and the TGI was > 100 µM.
`CC(=O)c1c(C)n([O-])c2cc(Cl)c(Cl)cc2[n+]1=O` gave a TGI of 74 µM.
In the case of `O=c1c(/C=C/c2c(O)ccc3ccccc23)nnc2sc(-c3cccc(Br)c3)nn12`, the TGI is reported as > 100 µM.

Each molecule was assayed on NCI/ADR-RES ovarian (assay: inhibition of tumour cell growth, NCI panel, 48 h).
With `O=c1cc(-c2cccc3ccccc23)[nH]c2ncccc12` the GI50 was 0.0173 µM and the TGI was > 100 µM.
With `O=C(/C=C/c1cc2ccccc2o1)N1CCN(c2ccccn2)CC1` the TGI was > 100 µM.
For `O=c1[nH]nc(Cc2ccccc2)n1/N=C/c1ccccc1O`, the TGI was > 100 µM.
In the case of `CC(=O)Oc1ccc2c(C)cc(=O)oc2c1OC(C)=O`, the TGI is reported as 78.6 µM.
With `N#CCCN(C(=O)Nc1ccccc1)[C@H]1CCCC[C@@H]1N(C(=O)Nc1ccccc1)c1ccccc1` the TGI was > 100 µM.
`Nc1nc(N)c2c3c(cnc2n1)CC(c1ccccc1)CC3` (centres undefined) was tested, and the TGI was > 100 µM.
With `CSc1ncnc2c1ncn2CCC(=O)OC(C)(C)C` the TGI was > 100 µM.
Work on `N#Cc1c(N)nc2n[nH]c(N)c2c1-c1ccc(Cl)cc1` yielded a TGI of 61.6 µM.
For `Nc1ncnc2c1ncn2[C@@H]1C[C@@H]1CO`, the TGI was > 100 µM.
For `CCOC(=O)c1nnc2c(C(=O)OCC)c3ccccc3n2c1N`, the TGI was 43.6 µM.
`CC12CC(c3ccccc3O1)C(C(=O)Nc1ccc(Cl)cc1Cl)C(=O)N2` (centres undefined) was tested, and the TGI was > 100 µM.
For `COC(=O)c1cc2ccc(N)nc2[nH]c1=O`, the TGI was > 100 µM.
With `CCOC(=O)C12OC(CCC1=O)C(C(=O)OC)=C2C(=O)OC` (centres undefined) the TGI was > 10 µM.
`NNC(=O)c1n[nH]nc1C(=O)NN` was tested, and the TGI was > 100 µM.
`O=C(O)[C@@H]1CCS(=O)(=O)N1` was tested, and the TGI was > 100 µM.
In the case of `CC(C)(C)OC(=O)[C@H]1CCC(=S)N1Cc1ccccc1`, the TGI is reported as > 100 µM.
`COc1ccc(S(=O)(=O)c2nnc(S(=O)(=O)Cc3ccccc3)s2)cc1` was tested, and the TGI was > 100 µM.
With `O=[N+]([O-])c1ccc2c(c1)C1=C(CO2)Cc2ccccc2O1` the TGI was > 100 µM.
With `Nc1nc(SC/C=C/c2ccccc2)c2[nH]cnc2n1` the TGI was > 100 µM.
For `CSc1nc(Nc2cccc(C(F)(F)F)c2)c2c(N)nn(C)c2n1`, the TGI was > 100 µM.
In the case of `CCCCNC(=S)Nc1nc(C(=O)NNC(=S)Nc2ccccc2)cs1`, the TGI is reported as > 100 µM.
With `CC(=O)c1c(C)n([O-])c2cc(Cl)c(Cl)cc2[n+]1=O` the TGI was 75.1 µM.
Work on `O=c1c(/C=C/c2c(O)ccc3ccccc23)nnc2sc(-c3cccc(Br)c3)nn12` yielded a TGI of 88.4 µM.

What follows are molecules tested on HCT-116 colon (assay: inhibition of tumour cell growth, NCI panel, 48 h).
Work on `O=c1cc(-c2cccc3ccccc23)[nH]c2ncccc12` yielded a TGI of 21.3 µM.
For `CN1CCOC(c2ccccc2)O1` (centres undefined), the TGI was > 100 µM.
In the case of `O=C(/C=C/c1cc2ccccc2o1)N1CCN(c2ccccn2)CC1`, the TGI is reported as > 100 µM.
For `CCCNC(=S)NNC(=O)CSc1nc(-c2ccccc2)c(-c2ccccc2)[nH]1`, the TGI was > 100 µM.
`CC(=O)c1sc(Nc2nnc(-c3ccc(-c4nnc(Nc5nc(C)c(C(C)=O)s5)o4)cc3)o2)nc1C` was tested, and the TGI was > 100 µM.
`O=c1[nH]nc(Cc2ccccc2)n1/N=C/c1ccccc1O` was tested, and the TGI was > 100 µM.
In the case of `CC1c2c(Cl)nc3ccccc3c2Oc2c1c(Cl)nc1ccccc21`, the TGI is reported as > 100 µM.
With `COC1(OC)C(N(C)C)=C(Cl)C(=O)/C1=C/C=O` the TGI was > 100 µM.
`CC(=O)Oc1ccc2c(C)cc(=O)oc2c1OC(C)=O` was tested, and the TGI was > 100 µM.
`N#Cc1c2ccccc2cn1-c1ccc(F)cc1` gave a TGI of 62.3 µM.
In the case of `N#CCCN(C(=O)Nc1ccccc1)[C@H]1CCCC[C@@H]1N(C(=O)Nc1ccccc1)c1ccccc1`, the TGI is reported as > 100 µM.
`Nc1nc(N)c2c3c(cnc2n1)CC(c1ccccc1)CC3` (centres undefined) showed a TGI of 32.5 µM.
With `Cc1ccccc1N1C(=O)C2C=CC(n3[nH]c(=O)n(Cc4ccccc4)c3=O)CC2C1=O` (centres undefined) the TGI was > 100 µM.
`CSc1ncnc2c1ncn2CCC(=O)OC(C)(C)C` was tested, and the TGI was > 100 µM.
`N#Cc1c(N)nc2n[nH]c(N)c2c1-c1ccc(Cl)cc1` was tested, and the TGI was > 100 µM.
With `COC(=O)C1=C(C(=O)NNc2ccccc2)N(c2cccnc2Cl)C(c2ccccc2)=CC1c1ccccc1` (centres undefined) the TGI was > 100 µM.
For `Nc1ncnc2c1ncn2[C@@H]1C[C@@H]1CO`, the TGI was > 100 µM.
In the case of `CCOC(=O)c1nnc2c(C(=O)OCC)c3ccccc3n2c1N`, the TGI is reported as > 100 µM.
For `S=c1sc2c(Cl)nc(Cl)nc2n1-c1ccccc1`, the TGI was 31.1 µM.
With `CC12CC(c3ccccc3O1)C(C(=O)Nc1ccc(Cl)cc1Cl)C(=O)N2` (centres undefined) the TGI was > 100 µM.
`COC(=O)c1cc2ccc(N)nc2[nH]c1=O` was tested, and the TGI was > 100 µM.
`COC(=O)C1=C(O)C(C(=O)OC)[C@]2(O)[C@H](C(=O)OC)[C@H]1C[C@@H](c1ccc(C(F)(F)F)cc1)[C@H]2C(=O)OC` (some centres undefined) was tested, and the TGI was 5.96 µM.
`CCOC(=O)C12OC(CCC1=O)C(C(=O)OC)=C2C(=O)OC` (centres undefined) was tested, and the TGI was > 10 µM.
With `NNC(=O)c1n[nH]nc1C(=O)NN` the TGI was > 100 µM.
`O=C(O)[C@@H]1CCS(=O)(=O)N1` was tested, and the TGI was > 100 µM.
In the case of `CCOC(=O)NC(Nc1ccc(S(=O)(=O)Nc2nc(C)cc(C)n2)cc1)(C(=O)OCC)C(F)(F)F` (centres undefined), the TGI is reported as > 100 µM.

— PubChem BioAssay (NCI)
